{"source": "paper PMC4786259", "about": "(PLoS ONE, 2016)", "key": {"5-HT1A [1]": {"target": "T1, 5-HT1A (Homo sapiens, UniProt P08908)", "T1 construct": "expressed in transfected cells", "T1 sequence (P08908 1-422)": "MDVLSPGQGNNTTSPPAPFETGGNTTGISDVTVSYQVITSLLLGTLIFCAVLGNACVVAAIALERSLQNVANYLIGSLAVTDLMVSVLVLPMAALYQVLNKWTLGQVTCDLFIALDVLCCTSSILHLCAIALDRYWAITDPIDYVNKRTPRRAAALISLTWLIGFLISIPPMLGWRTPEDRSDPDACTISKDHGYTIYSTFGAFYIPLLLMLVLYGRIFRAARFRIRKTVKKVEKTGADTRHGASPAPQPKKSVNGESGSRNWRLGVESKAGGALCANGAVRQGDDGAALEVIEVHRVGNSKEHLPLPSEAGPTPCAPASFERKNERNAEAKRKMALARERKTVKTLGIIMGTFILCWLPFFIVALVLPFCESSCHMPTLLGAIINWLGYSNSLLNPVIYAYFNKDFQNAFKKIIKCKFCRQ", "assay": "PDSP radioligand competition binding", "conditions": "radioligand [^3H]WAY100635; read-out: In Vitro Affinity"}, "D4": {"target": "T2, D4 (Homo sapiens, UniProt P21917)", "T2 construct": "expressed in transfected cells", "T2 sequence (P21917 1-419)": "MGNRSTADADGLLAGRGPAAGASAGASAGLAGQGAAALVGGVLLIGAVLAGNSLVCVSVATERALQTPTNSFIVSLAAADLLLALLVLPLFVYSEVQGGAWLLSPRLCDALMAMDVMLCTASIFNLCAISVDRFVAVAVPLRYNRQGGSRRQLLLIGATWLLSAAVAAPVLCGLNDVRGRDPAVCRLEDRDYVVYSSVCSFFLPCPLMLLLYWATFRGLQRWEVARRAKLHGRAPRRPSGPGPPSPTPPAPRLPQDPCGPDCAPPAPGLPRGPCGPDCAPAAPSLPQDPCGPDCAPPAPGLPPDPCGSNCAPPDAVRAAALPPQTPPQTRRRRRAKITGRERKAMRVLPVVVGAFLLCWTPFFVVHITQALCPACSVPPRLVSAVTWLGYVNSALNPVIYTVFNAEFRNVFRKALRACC", "assay": "PDSP radioligand competition binding", "conditions": "radioligand [^3H]N-methyl Spiperone; read-out: In Vitro Affinity"}, "α1B": {"target": "α1B (Homo sapiens, UniProt P35368)", "sequence (P35368 whole entry)": "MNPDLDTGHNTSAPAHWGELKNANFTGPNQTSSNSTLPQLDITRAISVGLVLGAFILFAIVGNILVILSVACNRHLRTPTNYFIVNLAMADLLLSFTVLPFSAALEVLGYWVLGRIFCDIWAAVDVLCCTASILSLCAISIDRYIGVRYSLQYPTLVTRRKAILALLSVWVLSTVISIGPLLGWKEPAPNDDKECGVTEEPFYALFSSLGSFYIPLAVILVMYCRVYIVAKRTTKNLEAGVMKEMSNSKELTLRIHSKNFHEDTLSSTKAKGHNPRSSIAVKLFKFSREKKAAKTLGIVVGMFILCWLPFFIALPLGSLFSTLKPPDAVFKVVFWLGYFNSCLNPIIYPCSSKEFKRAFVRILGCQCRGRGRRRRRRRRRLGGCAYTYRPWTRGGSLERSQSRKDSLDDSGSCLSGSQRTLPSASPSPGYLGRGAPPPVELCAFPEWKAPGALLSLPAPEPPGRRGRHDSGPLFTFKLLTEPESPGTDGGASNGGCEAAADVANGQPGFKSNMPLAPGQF", "assay": "PDSP radioligand competition binding", "conditions": "radioligand [^3H]Prazosin; read-out: In vitro Affinity"}, "α1D": {"target": "α1D (Homo sapiens, UniProt P25100)", "sequence (P25100 whole entry)": "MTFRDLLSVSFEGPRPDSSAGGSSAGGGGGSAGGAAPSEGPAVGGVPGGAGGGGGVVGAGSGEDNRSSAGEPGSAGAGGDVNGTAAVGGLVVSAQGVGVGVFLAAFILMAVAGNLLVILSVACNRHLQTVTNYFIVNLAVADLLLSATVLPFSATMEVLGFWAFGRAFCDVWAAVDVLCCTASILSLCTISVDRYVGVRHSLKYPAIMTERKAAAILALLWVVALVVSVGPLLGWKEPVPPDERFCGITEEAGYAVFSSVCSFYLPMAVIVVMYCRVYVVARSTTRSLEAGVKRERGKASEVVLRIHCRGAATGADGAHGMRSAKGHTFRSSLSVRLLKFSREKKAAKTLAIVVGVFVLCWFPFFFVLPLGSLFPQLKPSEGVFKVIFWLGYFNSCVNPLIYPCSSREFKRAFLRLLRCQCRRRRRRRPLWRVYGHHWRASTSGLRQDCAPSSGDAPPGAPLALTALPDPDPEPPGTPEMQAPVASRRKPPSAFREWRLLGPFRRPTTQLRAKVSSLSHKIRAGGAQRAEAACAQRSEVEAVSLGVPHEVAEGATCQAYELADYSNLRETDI", "assay": "PDSP radioligand competition binding", "conditions": "radioligand [^3H]Prazosin; read-out: In vitro Affinity"}, "α2A": {"target": "α2A (Homo sapiens, UniProt P08913)", "sequence (P08913 whole entry)": "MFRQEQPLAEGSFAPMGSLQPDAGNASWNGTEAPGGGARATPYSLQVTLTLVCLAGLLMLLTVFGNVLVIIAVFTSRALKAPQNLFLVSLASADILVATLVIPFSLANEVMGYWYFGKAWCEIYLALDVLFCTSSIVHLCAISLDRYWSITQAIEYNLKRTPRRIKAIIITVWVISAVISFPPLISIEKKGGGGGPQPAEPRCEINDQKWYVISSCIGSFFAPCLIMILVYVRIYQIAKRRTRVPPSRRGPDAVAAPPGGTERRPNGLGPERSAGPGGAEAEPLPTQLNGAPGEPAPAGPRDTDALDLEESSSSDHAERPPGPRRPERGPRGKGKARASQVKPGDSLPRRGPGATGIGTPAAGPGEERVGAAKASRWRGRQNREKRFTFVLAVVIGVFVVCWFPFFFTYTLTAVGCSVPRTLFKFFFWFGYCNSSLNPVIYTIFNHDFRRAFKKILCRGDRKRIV", "assay": "PDSP radioligand competition binding", "conditions": "radioligand [^3H]Rauwolscine; read-out: In vitro Affinity"}, "α2C": {"target": "α2C (Homo sapiens, UniProt P18825)", "sequence (P18825 whole entry)": "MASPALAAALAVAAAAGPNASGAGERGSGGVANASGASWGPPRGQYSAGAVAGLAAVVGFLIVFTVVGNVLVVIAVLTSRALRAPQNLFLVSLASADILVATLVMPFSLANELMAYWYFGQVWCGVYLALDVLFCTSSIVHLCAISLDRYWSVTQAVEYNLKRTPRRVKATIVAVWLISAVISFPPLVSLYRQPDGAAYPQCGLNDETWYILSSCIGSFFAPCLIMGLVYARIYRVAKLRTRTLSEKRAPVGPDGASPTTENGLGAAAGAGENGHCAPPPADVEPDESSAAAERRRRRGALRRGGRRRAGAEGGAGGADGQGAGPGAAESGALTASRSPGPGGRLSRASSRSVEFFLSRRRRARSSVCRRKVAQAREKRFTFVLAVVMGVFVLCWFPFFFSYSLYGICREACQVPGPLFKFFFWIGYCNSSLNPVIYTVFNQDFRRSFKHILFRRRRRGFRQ", "assay": "PDSP radioligand competition binding", "conditions": "radioligand [^3H]Rauwolscine; read-out: In vitro Affinity"}, "V1A": {"target": "V1A (Homo sapiens, UniProt P37288)", "sequence (P37288 whole entry)": "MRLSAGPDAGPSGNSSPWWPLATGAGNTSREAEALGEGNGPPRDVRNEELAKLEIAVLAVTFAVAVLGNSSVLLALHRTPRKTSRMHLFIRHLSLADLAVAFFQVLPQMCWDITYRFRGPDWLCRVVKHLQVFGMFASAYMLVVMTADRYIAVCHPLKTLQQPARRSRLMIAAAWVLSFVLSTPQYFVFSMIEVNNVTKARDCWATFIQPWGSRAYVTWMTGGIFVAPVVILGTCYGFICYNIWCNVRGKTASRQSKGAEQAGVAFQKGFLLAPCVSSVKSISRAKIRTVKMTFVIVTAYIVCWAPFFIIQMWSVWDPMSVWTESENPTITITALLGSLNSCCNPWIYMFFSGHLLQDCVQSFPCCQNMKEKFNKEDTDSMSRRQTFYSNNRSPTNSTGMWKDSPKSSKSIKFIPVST", "assay": "PDSP radioligand competition binding", "conditions": "radioligand [^3H]Vasopressin; read-out: In vitro Affinity"}, "5-HT5A": {"target": "5-HT5A (Homo sapiens, UniProt P47898)", "sequence (P47898 whole entry, species assumed)": "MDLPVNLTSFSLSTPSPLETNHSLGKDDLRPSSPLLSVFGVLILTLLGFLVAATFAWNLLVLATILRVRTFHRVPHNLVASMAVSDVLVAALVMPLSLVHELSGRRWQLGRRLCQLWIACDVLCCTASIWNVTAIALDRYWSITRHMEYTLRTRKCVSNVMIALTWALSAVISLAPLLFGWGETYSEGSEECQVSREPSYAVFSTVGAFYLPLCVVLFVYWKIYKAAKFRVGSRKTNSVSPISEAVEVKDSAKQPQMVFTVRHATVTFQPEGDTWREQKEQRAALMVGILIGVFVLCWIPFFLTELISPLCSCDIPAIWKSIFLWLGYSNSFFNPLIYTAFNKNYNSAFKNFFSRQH", "assay": "PDSP radioligand competition binding", "conditions": "radioligand [^3H]LSD; read-out: In vitro Affinity"}, "dopamine D2 receptor": {"target": "T3, dopamine D2 receptor (Homo sapiens, UniProt P14416)", "T3 construct": "expressed in transfected cells; host or cells: HEKT cells (ATCC)", "T3 sequence (P14416 whole entry, species assumed)": "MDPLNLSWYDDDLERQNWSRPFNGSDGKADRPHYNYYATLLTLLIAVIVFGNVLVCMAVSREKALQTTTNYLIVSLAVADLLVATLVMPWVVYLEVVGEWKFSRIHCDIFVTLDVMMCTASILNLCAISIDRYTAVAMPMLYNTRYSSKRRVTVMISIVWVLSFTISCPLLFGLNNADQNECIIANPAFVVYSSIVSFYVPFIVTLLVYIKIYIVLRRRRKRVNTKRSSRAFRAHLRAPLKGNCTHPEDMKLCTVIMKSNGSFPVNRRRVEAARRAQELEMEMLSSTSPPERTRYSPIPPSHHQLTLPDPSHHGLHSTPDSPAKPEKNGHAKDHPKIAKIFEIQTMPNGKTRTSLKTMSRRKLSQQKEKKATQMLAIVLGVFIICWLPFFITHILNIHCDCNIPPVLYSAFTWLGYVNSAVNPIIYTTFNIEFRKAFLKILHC", "assay_type": "cell-based"}, "5-HT1A [2]": {"target": "T1, 5-HT1A", "assay": "PDSP receptor functional assay", "assay_type": "cell-based"}, "5-HT2A": {"target": "T4, 5-HT2A (Homo sapiens, UniProt P28223)", "T4 construct": "expressed in transfected cells", "T4 sequence (P28223 whole entry, looked up)": "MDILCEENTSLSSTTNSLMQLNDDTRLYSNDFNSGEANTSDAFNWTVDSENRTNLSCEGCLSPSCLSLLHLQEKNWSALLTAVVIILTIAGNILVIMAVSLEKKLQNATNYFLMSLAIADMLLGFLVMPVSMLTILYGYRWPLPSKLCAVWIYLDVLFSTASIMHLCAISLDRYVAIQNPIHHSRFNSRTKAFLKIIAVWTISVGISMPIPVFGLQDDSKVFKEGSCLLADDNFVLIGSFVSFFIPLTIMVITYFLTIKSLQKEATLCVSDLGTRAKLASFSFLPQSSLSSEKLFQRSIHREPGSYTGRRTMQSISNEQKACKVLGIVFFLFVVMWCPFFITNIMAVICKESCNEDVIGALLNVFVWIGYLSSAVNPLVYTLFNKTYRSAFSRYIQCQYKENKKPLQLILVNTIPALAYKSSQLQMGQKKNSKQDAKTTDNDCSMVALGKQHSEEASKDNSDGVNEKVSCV", "assay": "PDSP receptor functional assay", "assay_type": "cell-based"}, "male B6129 hybrid mice": {"system": "male B6129 hybrid mice", "assay": "Clozapine drug discrimination (substitution)", "assay_type": "in vivo", "protocol": "Adult male B6129 hybrid mice (n = 12) were trained to respond under a FR10 schedule and were reinforced by presentation of sweetened milk as described previously. The drug and vehicle lever positions were counterbalanced between groups to control for olfactory cues. All injections were given subcutaneously with a pre-session injection time of 30 minutes. Training occurred on a double alternation injection schedule with two days of VEH followed by two days of CLZ and repeated (VEH, VEH, CLZ, CLZ, VEH, VEH etc.). In order for a mouse to pass a training day it had to meet three criteria: (1) complete the first fixed ratio (FR) on the condition-appropriate lever, (2) at least 80% of the total responses were made on the condition-appropriate lever, and (3) at least 10 responses per minute were made during the session. Drug testing was conducted approximately two times per week with at least two training days in between. To be eligible for testing, mice were required to pass both a drug and vehicle training day consecutively. […] Responses on both levers were reinforced.\nA p<0.05 was considered significant."}, "male C57BL/6J mice": {"system": "male C57BL/6J mice", "assay": "AMPH-induced hyperlocomotor activity (open field)", "assay_type": "in vivo", "conditions": "3 mg/kg pre-treatment, 3 mg/kg AMPH; between 35–50 min, vs amphetamine alone", "protocol": "Locomotor activity was assessed in AccuScan activity monitors (41X41X30 cm; AccuScan Instruments, Columbus, OH) with photocells spaced at 1.52 cm as described. In these monitors, the photocells create a grid of light beams, and breaks in the light beams (caused by the mouse) are recorded. The Accuscan software then calculates the total distance travelled (amongst other measurements) by analyzing the sequential order of beam breaks in the grid. Horizontal activity was measured as the total distance traveled in centimeters and was recorded in 5-minute bins. PCP-induced hyperlocomotor activity: mice (n = 16) previously acclimated to activity chambers were placed into the chambers for 15 minutes. […] Subsequently, mice were injected with 6.0 mg/kg PCP (i.p.) and returned to the chamber for 90 minutes. Induction of AMPH-induced hyperlocomotor activity followed an identical protocol except locomotor activity was recorded for a total of 75 minutes and 3 mg/kg AMPH was used (i.p.)."}, "[3]": {"conditions": "rats; cited from earlier work"}, "rats": {"system": "rats", "design": "method as in PMID 100809", "conditions": "dose range 25–100 mg/kg; cited from earlier work"}, "hDAT": {"target": "hDAT (Homo sapiens, UniProt Q01959)", "sequence (Q01959 whole entry)": "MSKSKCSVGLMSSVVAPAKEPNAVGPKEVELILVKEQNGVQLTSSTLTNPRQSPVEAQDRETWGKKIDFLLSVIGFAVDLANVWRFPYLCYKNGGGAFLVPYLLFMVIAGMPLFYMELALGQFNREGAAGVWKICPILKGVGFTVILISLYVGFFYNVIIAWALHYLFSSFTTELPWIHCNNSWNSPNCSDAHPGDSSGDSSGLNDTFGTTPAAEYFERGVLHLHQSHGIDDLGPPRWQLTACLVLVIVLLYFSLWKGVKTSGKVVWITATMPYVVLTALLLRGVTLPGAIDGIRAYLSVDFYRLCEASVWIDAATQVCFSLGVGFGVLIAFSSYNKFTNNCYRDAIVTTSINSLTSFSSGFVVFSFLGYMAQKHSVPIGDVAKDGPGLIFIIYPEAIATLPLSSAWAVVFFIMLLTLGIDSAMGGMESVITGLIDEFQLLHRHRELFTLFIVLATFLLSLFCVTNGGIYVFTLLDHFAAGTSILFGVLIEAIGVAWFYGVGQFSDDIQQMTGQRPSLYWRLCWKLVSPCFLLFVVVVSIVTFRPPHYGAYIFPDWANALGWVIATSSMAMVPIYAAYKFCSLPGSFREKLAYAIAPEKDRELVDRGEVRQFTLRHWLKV", "assay": "Whole cell 3H-dopamine uptake in HEK-DAT cells", "quoted_text": "(§1) Cell culture: HEK293 cells (ATCC) lines stably expressing hDAT or hDAT and hVMAT2 constructs were cultured at 37°C and 5% CO2 in DMEM with 10% FBS.\n(§2) Whole cell ^3H-dopamine (DA) uptake: Cells were plated into 48-well plates one day before uptake was performed. […] After incubation, 25 μl uptake buffer containing ^3H-DA and DA was added for a final concentration of 20 nM ^3H-DA and 1 μM DA. Cells were incubated at 37°C for 20 minutes or for the time indicated. Nonspecific uptake was determined in the presence of 10 μM nomifensine. Uptake was terminated by aspirating uptake buffer and washing each well twice with 0.5 ml ice-cold uptake buffer. Cells were lysed in 0.1 N NaOH and transferred to vials containing 3 ml scintillation cocktail. Radioactivity was quantitated using a Beckman LS6500 counter. Data were analyzed in Graph Pad Prism 5.0."}, "hDAT and hVMAT2": {"system": "hDAT and hVMAT2", "assay": "Whole cell 3H-dopamine uptake in HEK-DAT/VMAT2 cells", "conditions": "nuciferine pre-treatment", "quoted_text": "as §1, §2"}}, "note": "Read-outs that look alike come from different tables or passages of the source."}
{"smiles": "COc1cc2c3c(c1OC)-c1ccccc1C[C@H]3N(C)CC2", "note": "[nuciferine]", "values": [{"measurement": "Ki", "setting": "5-HT1A [1]", "value": 77, "unit": "nM"}, {"measurement": "Ki", "setting": "D4", "value": 1390, "unit": "nM"}, {"measurement": "Ki", "setting": "α1B", "value": 2000, "unit": "nM"}, {"measurement": "Ki", "setting": "α1D", "value": 818, "unit": "nM"}, {"measurement": "Ki", "setting": "α2A", "value": 1150, "unit": "nM"}, {"measurement": "Ki", "setting": "α2C", "value": 693, "unit": "nM"}, {"measurement": "Ki", "setting": "V1A", "value": 10000, "unit": "nM"}, {"measurement": "Ki", "setting": "5-HT5A", "value": 1110, "unit": "nM"}, {"measurement": "Function Type", "setting": "dopamine D2 receptor", "value": "Partial agonist"}, {"measurement": "Emax", "setting": "dopamine D2 receptor; D2 partial agonist activity, Fig 4A", "value": "67 % of dopamine"}, {"measurement": "Function Type", "setting": "5-HT1A [2]", "value": "Agonist"}, {"measurement": "EC50", "setting": "5-HT1A [2]; 5-HT1A agonist, read-out: EC50", "value": 3200, "unit": "nM"}, {"measurement": "EC50", "setting": "5-HT1A [2]; agonist, read-out: Functional EC50", "value": 3230, "unit": "nM"}, {"measurement": "Function Type", "setting": "5-HT2A", "value": "Antagonist"}, {"measurement": "IC50", "setting": "5-HT2A; 5-HT2A antagonist activity", "value": 478, "unit": "nM"}, {"measurement": "EC50", "setting": "5-HT2A; antagonist", "value": 478, "unit": "nM"}, {"measurement": "drug lever responding", "setting": "male B6129 hybrid mice; 10.0 mg/kg s.c., animals trained on 1.25 mg/kg clozapine", "value": 80.63, "unit": "%"}, {"measurement": "ED50", "setting": "male B6129 hybrid mice; Mus musculus, sc, 95% CI 3.09–9.48 mg/kg", "value": 5.42, "unit": "mg/kg"}, {"measurement": "substitution for clozapine's discriminative cue", "setting": "male B6129 hybrid mice; lower doses 0.1 mg/kg–3.0 mg/kg", "value": "failed to produce substitution"}, {"measurement": "amphetamine induced hyperlocomotion", "setting": "male C57BL/6J mice", "value": "significantly higher motor activity"}, {"measurement": "crossing of the blood brain barrier", "setting": "[3]", "value": "shown to cross the blood brain barrier"}, {"measurement": "hyperlocomotor effect of amphetamine", "setting": "rats", "value": "inhibits the hyperlocomotor effect of amphetamine"}, {"measurement": "EC50", "setting": "hDAT", "value": 1.8, "unit": "nM"}, {"measurement": "effect on dopamine uptake in HEK-DAT/VMAT2 cells", "setting": "hDAT and hVMAT2", "value": "no effect"}]}
